Measurements reported in patent US20040242669A1, “Method of treating deficits associated with brain injury” (priority 2003, published 2004).
Marks after values point to notes of the source that are not given here.

Assays:
Format in all cases: in vivo, rat
[1] = tested on: animals with hypobaric hypoxia-induced amnesia; assay: Shuttle-box active avoidance acquisition, hypobaric hypoxia-induced amnesia; details: for Learners / CARs: hypobaric hypoxia; for CARs: mean ± S.E.M.
Protocol: (§1) Male rats of the Sprague-Dawley strain (purchased from Charles River, Italy) weighing 280±20 g were used throughout all experiments. The animals were housed two-three to a cage under a constant light-dark cycle (lights on between 8.00 and 20.00) at 21° C. Commercial food and tap water were available ad libitum. All animals were used only once in the behavioral experiments.
(§2) Ropinirole (ropinirole hydrochloride, SmithKline Beecham, Italy) and dihydroergocryptine (DHECP) α-dihydroergocryptine methanesulfonate, Monsanto, Italy) were dissolved in saline and injected subcutaneously (s.c.) at the dose of 0.5 and 1 mg/kg/day for 7 days. In the experiments with kainate-induced convulsions, ropinirole or DHECP were injected intravenously (i.v.) 30 min prior, and again at the same time of the intracerebroventricular (i.c.v) injection on kainic acid; Control animals received an injection of saline alone with the same procedure.
(§3) Shuttle-box active avoidance acquisition was studied in a single session test as described in Bohus and De Wied, Endogenous Peptides and Learning and Memory Processes. Academic Press, New York, pp59-775, (1981). Briefly, the rats were trained to avoid the unconditioned stimulus (US) of a scrambled electrical foot-shock (0.20 mA) delivered through the grid floor. The conditioned stimulus (CS) was a buzzer presented for 3 s prior to the US. If no escape occurred within 20 s of CS/US presentation, the shock was terminated. A maximum of 30 conditioning trials were given with a variable intertrial interval averaging 60 s. The learning criterion was five consecutive conditioned avoidance responses (CARs). For those animals that reached the criterion in less than 30 trials, the remaining trials until 30 were considered as CARs. Indexes of avoidance behaviour were the total number of CARs and the percent number of learners per group.
(§4) In the first experiment, the effects of ropinirole or DHECP were studied on amnesia induced by hypobaric hypoxia in rats. After a 7-day pretreatment with ropinirole, DHECP or saline, a group of animals was subjected to acute hypobaric hypoxia by means of a hypobaric chamber (Chantiers et Ateliers de Bretagne, France) causing depression to 300 mmHg (Boismare et al., Gerentology, 24, 6-13 (1978)). After 3 min in the chamber, the animals were removed and admitted for behavioral testing. Intact control rats were also introduced into the chamber but not subjected to hypobaric hypoxia.

[2] = tested on: animals with hypobaric hypoxia-induced amnesia; assay: Open field spontaneous motor activity, hypobaric hypoxia; details: for Ambulation / Defecation / Grooming / Rearing: 5 min open field, mean ± S.E.M.
Protocol: as §1, §2
Spontaneous motor activity was scored in a circular open field arena as described by Weijnen and Slangen, Pituitary, Adrenal and the Brain, pp221-235 (1982). Animals were put inside a circular lit-up arena, with the bottom divided into 27 areas of equal size.
as §4

[3] = tested on: animals with hypobaric hypoxia-induced amnesia; assay: Step-through passive avoidance, hypobaric hypoxia-induced amnesia; details: for Latency: hypobaric hypoxia, median latency to re-enter dark box, max 300 s
Protocol: as §1, §2
Passive avoidance behaviour was studied in a step-through type of passive avoidance situation (Ader et al., Psycon Sci, 26, 125-128 (1972)). Briefly the rats were adapted to the apparatus consisting of a large dark compartment equipped with a grid floor and a mesh-covered elevated runway attached to the front centre of the dark chamber. Adaptation training was followed by a single trial in which the rats were placed on the elevated platform and allowed to enter the dark box. Three such trials were given on the next day with an intertrial interval of 5 min after the trial. The rats received a single 2-s unavoidable scrambled foot-shock (0.20 mA) immediately after entering the dark compartment. Retention of the response was tested 24 h after the learning trial. The rats were placed on the elevated runway and the latency to re-enter the shock compartment was recorded up to a maximum of 300 s.
as §4

[4] = tested on: animals with chronic brain occlusive ischemia; assay: Shuttle-box active avoidance acquisition, chronic brain occlusive ischemia; details: for CARs: chronic brain occlusive ischemia (2 months), mean ± S.E.M.
Protocol: as §1
A number of animals were subjected to a manipulation of the four major arteries of the brain with a method similar to that described by Pulsinelli et al., Ann. Neurol, 11, 491-498 (1982). Both vertebral arteries were cauterised under sodium pentobarbital anaesthesia and polyethylene cuffs PE-10 were placed loosely around the common carotid arteries without completely interrupting carotid blood flow. Two months after operation, all surviving animals showing no neurological gross abnormalities were admitted to drug treatment. Animals undergoing a sham operation were considered as controls.
as §2
as §3, with “Academic” for “Shuttle-box active avoidance acquisition was studied in a single session test as described in Bohus and De Wied, Endogenous Peptides and Learning and Memory Processes. Academic”
Animals with 2-month chronic brain occlusive ischemia, were subjected to a treatment with ropinirole, DHECP or saline for 7 days. At the end of treatment, the animals were admitted to behavioral testing. Controls were those animals with sham manipulation of brain arteries.

[5] = hypobaric hypoxia-induced amnesia, summary of Table 1

In the case of `CC(C)C[C@H]1C(=O)N2CCC[C@H]2[C@]2(O)O[C@](NC(=O)[C@@H]3C[C@@H]4c5cccc6[nH]cc(c56)C[C@H]4N(C)C3)(C(C)C)C(=O)N12` [DHECP, α-dihydroergocryptine methanesulfonate], the “number of CARs and percent number of learners in the shuttle-box (effect of treatment, in words)” value [1, 5] is reported as “increase in these behavioral parameters, however, for the latter only with the greater dose”, the Learners ([1]; 0.5 mg/kg/day s.c. for 7 days) is reported as 30^c percent and the CARs ([1]; 0.5 mg/kg/day s.c. for 7 days) is reported as 13.0 ± 1.3^a. The Learners ([1]; 1 mg/kg/day s.c. for 7 days) was 80^d percent, the CARs ([1]; 1 mg/kg/day s.c. for 7 days) was 18.1 ± 1.2^b and the Ambulation ([2]; 0.5 mg/kg/day s.c. for 7 days) was 68.9 ± 6.6^b. For the same compound, the Defecation ([2]; 0.5 mg/kg/day s.c. for 7 days) was 3.4 ± 0.9, the Grooming ([2]; 0.5 mg/kg/day s.c. for 7 days) was 22.2 ± 2.3 and the Rearing ([2]; 0.5 mg/kg/day s.c. for 7 days) was 16.4 ± 1.3^a,b. The Ambulation ([2]; 1 mg/kg/day s.c. for 7 days) was 73.1 ± 5.6^a,b, the Defecation ([2]; 1 mg/kg/day s.c. for 7 days) was 3.7 ± 1.3 and the Grooming ([2]; 1 mg/kg/day s.c. for 7 days) was 23.3 ± 2.1. For the same compound, the Rearing ([2]; 1 mg/kg/day s.c. for 7 days) was 16.5 ± 1.9^b, the “ambulation and rearing (effect of treatment, in words)” value ([2]; vs intact controls and saline-treated hypoxic animals) was “higher” and the “latency to re-enter the dark box (effect of treatment, in words)” value [3, 5] was “increase in these behavioral parameters, however, for the latter only with the greater dose”. The Latency ([3]; 0.5 mg/kg/day s.c. for 7 days) was 30^e, the Latency ([3]; 1 mg/kg/day s.c. for 7 days) was 74^f and the CARs ([4]; 0.5 mg/kg/day s.c. for 7 days) was 10.6 ± 1.1^a. The CARs ([4]; 1 mg/kg/day s.c. for 7 days) was 14.1 ± 1.1^a, the Learners ([4]; chronic brain occlusive ischemia, 0.5 mg/kg/day s.c. for 7 days) was 20^b percent and the Learners ([4]; chronic brain occlusive ischemia, 1 mg/kg/day s.c. for 7 days) was 10^b percent. The “cognitive parameters of the active avoidance test (effect of treatment, in words)” value ([4]; chronic brain occlusive ischemia, Table 2) was “No statistically significant change”.
